Experimental data from patent publication US20250092065A1, “2-(INDAZOL-5-YL)-6-(PIPERIDIN-4-YL)-1,7-NAPHTHYRIDINE DERIVATIVES AND RELATED COMPOUNDS AS MODULATORS FOR SPLICING NUCLEIC ACIDS AND FOR THE TREATMENT OF PROLIFERATIVE DISEASES” (REMIX THERAPEUTICS INC., priority 2022, published 2025).

What was measured:
[1] = system: Target C; experiment: RT-qPCR canonical junction panel assay, Target C mRNA; format: cell-based; details: Table 4, read-out: Target C IC50 (decrease in CJ mRNA levels)
Summary of the method: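 IC50 is the concentration giving 50% CJ decrease, from a 4-parameter logistic fit of percent response; response derived from ΔΔCt against housekeeper and DMSO over a fixed ΔCt window, with canonical exon-junction qPCR in compound-treated K562 or A673 cells.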

[2] = system: HTT; experiment: HiBiT protein abundance assay, HTT (K562 HiBiT knock-in); format: cell-based, human; details: HiBiT knock-in K562 cells, 24 hours, top dose 10 μM
Summary of the method: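 Luminescence readout: Nano-Glo HiBiT lytic detection after 24 h compound exposure of K562 HiBiT knock-in cells, 10000 cells/well. Dosing 10-pt, 3-fold, top 10 μM final. % response vs untreated parental K562 and DMSO controls; 4PL fit, IC50 = concentration giving 50% protein abundance.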

[3] = system: K562 cells; experiment: Cell Titer Glo 2.0 cell viability (toxicity) assay, K562; details: 500 cells/well, 72 hours

Row | SMILES | IC50 [1] | IC50 [2] | Effect of Exemplary Compounds on Cell Viability, K562 [3]
1 | Cn1cc2cc(-c3ccc4nc(N5CCC(NC6CC6)C5)ccc4n3)c(O)c(F)c2n1 (racemic) [Compound 287, 5-{6-[3-(cyclopropylamino)pyrrolidin-1-yl]-1,5-naphthyridin-2-yl}-7-fluoro-2-methylindazol-6-ol; trifluoroacetic acid] | < 100 nM | < 100 nM | A (A represents <100 nM)
2 | CC(C)N[C@@H]1CCN(c2ccc3nc(-c4cc5cn(C)nc5c(F)c4O)ccc3n2)C1 (single isomer, unassigned) [Compound 285] | < 100 nM | < 100 nM | A (A represents <100 nM)
3 | CC(C)N[C@H]1CCN(c2ccc3nc(-c4cc5cn(C)nc5c(F)c4O)ccc3n2)C1 (single isomer, unassigned) [Compound 286] | < 100 nM | < 100 nM | A (A represents <100 nM)
4 | Cc1c(O)c(-c2ccc3nc(N4CC[C@@H](NC5CCC5)C4)ccc3n2)cc2cn(C)nc12 (single isomer, unassigned) [Compound 289] | < 100 nM | < 100 nM | A (A represents <100 nM)
5 | Cc1c(O)c(-c2ccc3nc(N4CC[C@H](NC5CCC5)C4)ccc3n2)cc2cn(C)nc12 (single isomer, unassigned) [Compound 290] | < 100 nM | < 100 nM | A (A represents <100 nM)
6 | Cc1nc2cc(O)c(-c3ccc4nc(N5CCC(NCC6CC6)C5)ccc4n3)cc2o1 (single isomer, unassigned) [Compound 291, 6-(6-{3-[(cyclopropylmethyl)amino]pyrrolidin-1-yl}-1,5-naphthyridin-2-yl)-2-methyl-1,3-benzoxazol-5-ol] | 100 to 1000 nM | < 100 nM | B (B represents 100-1000 nM)
7 | Cc1nc2cc(O)c(-c3ccc4nc(N5CCC(NCC6CC6)C5)ccc4n3)cc2o1 (single isomer, unassigned) [Compound 292, 6-(6-{3-[(cyclopropylmethyl)amino]pyrrolidin-1-yl}-1,5-naphthyridin-2-yl)-2-methyl-1,3-benzoxazol-5-ol] | 100 to 1000 nM | < 100 nM | B (B represents 100-1000 nM)
8 | Cn1cc2cc(-c3ccc4nc(N5CC[C@@H](N[C@H]6C[C@@H](F)C6)C5)ccc4n3)c(O)cc2n1 (single isomer, unassigned) [Compound 300] | < 100 nM | < 100 nM | B (B represents 100-1000 nM)
9 | Cn1cc2cc(-c3ccc4nc(N5CC[C@@H](NCC6CC6)C5)ccc4n3)c(O)c(F)c2n1 (single isomer, unassigned) [Compound 303] | < 100 nM | < 100 nM | A (A represents <100 nM)
10 | Cn1cc2cc(-c3ccc4nc(N5CC[C@H](NCC6CC6)C5)ccc4n3)c(O)c(F)c2n1 (single isomer, unassigned) [Compound 304] | < 100 nM | < 100 nM | A (A represents <100 nM)
11 | Cn1cc2cc(-c3ccc4nc(N5CC[C@@H](NC6CC6)C5)ccc4n3)c(O)c(F)c2n1 (single isomer, unassigned) [Compound 305] | < 100 nM | < 100 nM | A (A represents <100 nM)
12 | Cn1cc2cc(-c3ccc4nc(N5CC[C@H](NC6CC6)C5)ccc4n3)c(O)c(F)c2n1 (single isomer, unassigned) [Compound 306] | < 100 nM | < 100 nM | A (A represents <100 nM)
13 | Cn1cc2cc(-c3ccc4nc(N5CC[C@@H](NC6CCC6)C5)ccc4n3)c(O)c(F)c2n1 (single isomer, unassigned) [Compound 316] | < 100 nM | < 100 nM | A (A represents <100 nM)
14 | Cn1cc2cc(-c3ccc4nc(N5CC[C@H](NC6CCC6)C5)ccc4n3)c(O)c(F)c2n1 (single isomer, unassigned) [Compound 317] | < 100 nM | < 100 nM | A (A represents <100 nM)
15 | Cc1c(O)c(-c2ccc3nc(N4CC[C@@H](NC(C)C)C4)ccc3n2)cc2cn(C)nc12 (single isomer, unassigned) [Compound 319] | < 100 nM | < 100 nM | A (A represents <100 nM)
16 | Cc1c(O)c(-c2ccc3nc(N4CC[C@H](NCC5CC5)C4)ccc3n2)cc2cn(C)nc12 (single isomer, unassigned) [Compound 321] | < 100 nM | < 100 nM | B (B represents 100-1000 nM)
17 | Cc1c(O)c(-c2ccc3nc(N4CC[C@@H](NCC5CC5)C4)ccc3n2)cc2cn(C)nc12 (single isomer, unassigned) [Compound 322] | < 100 nM | < 100 nM | B (B represents 100-1000 nM)
18 | Cn1cc2cc(-c3ccc4nc(N5CC[C@H](N[C@H]6C[C@H](F)C6)C5)ccc4n3)c(O)c(F)c2n1 (single isomer, unassigned) [Compound 347] | < 100 nM | < 100 nM | A (A represents <100 nM)
19 | Cc1nc2cc(O)c(-c3ccc4nc(N5CC[C@@H](N[C@H]6C[C@H](F)C6)C5)ccc4n3)cc2o1 (single isomer, unassigned) [Compound 348] | 100 to 1000 nM | < 100 nM | C (C represents 1000-9999 nM)
20 | Cn1cc2cc(-c3ccc4nc(N5CC[C@@H](N[C@H]6C[C@H](F)C6)C5)ccc4n3)c(O)c(F)c2n1 (single isomer, unassigned) [Compound 349] | < 100 nM | < 100 nM | B (B represents 100-1000 nM)
21 | Cc1cn2nc(-c3ccc4nc(N5CCC(NC6CC6)C5)ccc4n3)c(O)c2c(C)n1 (centres unmarked) [Compound 252] | 100 to 1000 nM | 100 to 1000 nM | 

Continued, in another order:

Row | IC50 [1] | IC50 [2] | SMILES | Effect of Exemplary Compounds on Cell Viability, K562 [3]
22 | 100 to 1000 nM | < 100 nM | Cc1nc2c(C)c(O)c(-c3ccc4nc(N5CC[C@@H](NCC6CC6)C5)ccc4n3)cc2o1 (single isomer, unassigned) [Compound 295] | B (B represents 100-1000 nM)
23 | < 100 nM | < 100 nM | Cc1nc2c(C)c(O)c(-c3ccc4nc(N5CC[C@H](NCC6CC6)C5)ccc4n3)cc2o1 (single isomer, unassigned) [Compound 296] | B (B represents 100-1000 nM)
24 | < 100 nM | < 100 nM | Cc1nc2c(F)c(O)c(-c3ccc4nc(N5CC[C@@H](NC6CCC6)C5)ccc4n3)cc2o1 (single isomer, unassigned) [Compound 307] | A (A represents <100 nM)
25 | < 100 nM | < 100 nM | Cc1nc2c(F)c(O)c(-c3ccc4nc(N5CC[C@H](NC6CCC6)C5)ccc4n3)cc2o1 (single isomer, unassigned) [Compound 308] | A (A represents <100 nM)
26 | < 100 nM | < 100 nM | Cc1nc2c(C)c(O)c(-c3ccc4nc(N5CC[C@@H](NC6(C)CC6)C5)ccc4n3)cc2o1 (single isomer, unassigned) [Compound 310] | A (A represents <100 nM)
27 | 100 to 1000 nM | < 100 nM | Cc1nc2c(C)c(O)c(-c3ccc4nc(N5CC[C@H](NC6(C)CC6)C5)ccc4n3)cc2o1 (single isomer, unassigned) [Compound 311] | C (C represents 1000-9999 nM)
28 | < 100 nM | < 100 nM | Cc1nc2c(C)c(O)c(-c3ccc4nc(N5CC[C@@H](NC(C)C)C5)ccc4n3)cc2o1 (single isomer, unassigned) [Compound 313] | A (A represents <100 nM)
29 | < 100 nM | < 100 nM | Cc1nc2c(C)c(O)c(-c3ccc4nc(N5CC[C@H](NC(C)C)C5)ccc4n3)cc2o1 (single isomer, unassigned) [Compound 314] | A (A represents <100 nM)
30 | < 100 nM | < 100 nM | Cc1nc2c(F)c(O)c(-c3ccc4nc(N5CC[C@@H](NCC6CC6)C5)ccc4n3)cc2o1 (single isomer, unassigned) [Compound 323] | A (A represents <100 nM)
31 | < 100 nM | < 100 nM | Cc1nc2c(F)c(O)c(-c3ccc4nc(N5CC[C@H](NCC6CC6)C5)ccc4n3)cc2o1 (single isomer, unassigned) [Compound 324] | A (A represents <100 nM)
32 | < 100 nM | < 100 nM | Cc1nc2c(F)c(O)c(-c3ccc4nc(N5CC[C@@H](NC(C)C)C5)ccc4n3)cc2o1 (single isomer, unassigned) [Compound 329] | A (A represents <100 nM)
33 | < 100 nM | < 100 nM | Cc1nc2c(F)c(O)c(-c3ccc4nc(N5CC[C@H](NC(C)C)C5)ccc4n3)cc2o1 (single isomer, unassigned) [Compound 330] | A (A represents <100 nM)
34 | < 100 nM | < 100 nM | Cc1nc2c(C)c(O)c(-c3ccc4nc(N5CC[C@H](N[C@H]6C[C@H](F)C6)C5)ccc4n3)cc2o1 (single isomer, unassigned) [Compound 351] | B (B represents 100-1000 nM)
